Measured values reported in BigSolDB 2.1.

COc1cc(CNC(=O)CCCCCCC(C)C)ccc1O
Details | solubility (mole fraction)
in acetone, 299.49 K | 0.193
in acetone, 300.47 K | 0.203
in acetone, 302.34 K | 0.224
in acetone, 303.46 K | 0.236
in acetone, 304.58 K | 0.249
in acetone, 305.69 K | 0.256
in acetone, 306.75 K | 0.269
in acetone, 308.78 K | 0.287
in ethanol, 301.79 K | 0.184
in ethanol, 303.35 K | 0.196
in ethanol, 305.54 K | 0.213
in ethanol, 307.86 K | 0.233
in ethanol, 309.95 K | 0.249
in ethanol, 311.23 K | 0.258
in ethanol, 312.98 K | 0.268
in ethanol, 314.44 K | 0.278
in ethyl acetate, 302.07 K | 0.307
in ethyl acetate, 304.12 K | 0.33
in ethyl acetate, 305.29 K | 0.342
in ethyl acetate, 306.48 K | 0.354
in ethyl acetate, 307.69 K | 0.369
in ethyl acetate, 308.81 K | 0.379
in ethyl acetate, 310.65 K | 0.397
in ethyl acetate, 312.79 K | 0.415
in n-heptane, 298.43 K | 0.000229
in n-heptane, 300.59 K | 0.00026
in n-heptane, 302.85 K | 0.000299
in n-heptane, 304.03 K | 0.000318
in n-heptane, 305.69 K | 0.000349
in n-heptane, 307.08 K | 0.000378
in n-heptane, 308.84 K | 0.000422
in n-heptane, 309.97 K | 0.000451
in n-heptane, 311.04 K | 0.00048
in n-heptane, 313.41 K | 0.000549
in n-hexane, 296.14 K | 0.000136
in n-hexane, 298.73 K | 0.000159
in n-hexane, 300.87 K | 0.000181
in n-hexane, 301.98 K | 0.000196
in n-hexane, 303.09 K | 0.00021
in n-hexane, 305.04 K | 0.000238
in n-hexane, 307.13 K | 0.000269
in n-hexane, 309.25 K | 0.000309
in n-hexane, 310.68 K | 0.00034
in n-hexane, 312.02 K | 0.000374
in n-pentane, 297.26 K | 0.000115
in n-pentane, 298.19 K | 0.000122
in n-pentane, 299.27 K | 0.00013
in n-pentane, 300.43 K | 0.000142
in n-pentane, 301.54 K | 0.000152
in water, 324.67 K | 4.81e-05
in water, 325.03 K | 5.24e-05
in water, 325.66 K | 6.14e-05
in water, 326.29 K | 7.19e-05
in water, 326.81 K | 8.17e-05
in water, 327.37 K | 9.26e-05
